ChEMBL document CHEMBL5537165, “Hepatitis C: The Story of a Long Journey through First, Second, and Third Generation NS3/4A Peptidomimetic Inhibitors. What Did We Learn?” (J Med Chem, 2024)
pEC50, pIC50, pKi: −log10 of the molar value. “And” between values parts separate entries of the source, which are not always exact repeats. Equal entries are not always repeated.

Columns and labels:
[1] = Oral bioavailability in Sprague-Dawley rat at 3 mg/kg by LC-MS/MS analysis; assay type: ADME, organism-based; conditions: in vivo
[2] = Cmax in Sprague-Dawley rat at 3 mg/kg, po and measured upto 24 hrs by LC-MS/MS analysis; assay type: ADME, organism-based; conditions: in vivo
[3] = Half life in Sprague-Dawley rat at 5 mg/kg, po by LC-MS/MS analysis; assay type: ADME, organism-based; conditions: in vivo
[4] = Clearance in Sprague-Dawley rat at 0.5 mg/kg, iv by LC-MS/MS analysis; assay type: ADME, organism-based; conditions: in vivo
[5] = Volume of distribution at steady state in Sprague-Dawley rat at 3 mg/kg, iv measured up to 24 hrs by LC-MS/MS analysis; assay type: ADME, organism-based; conditions: in vivo, read-out: Vdss
[6] = AUC in Sprague-Dawley rat at 5 mg/kg, po measured upto 24 hrs by LC/MS/MS analysis; assay type: ADME, organism-based; conditions: in vivo
[7] = AUC in Beagle dog at 5 mg/kg, po measured upto 24 hrs by LC/MS-MS analysis; assay type: ADME, organism-based, Canis lupus familiaris; conditions: in vivo
[8] = AUC (0 to infinity) in liver to plasma of Sprague-Dawley rat at 3 mg/kg,po; assay type: ADME, organism-based; conditions: in vivo
[9] = molecular target: T1, Non-structural protein 4b (Hepacivirus hominis, UniProt F5B4I0); assay: Inhibition of Hepatitis C virus genotype 1b NS4B
T1 sequence (F5B4I0 whole entry): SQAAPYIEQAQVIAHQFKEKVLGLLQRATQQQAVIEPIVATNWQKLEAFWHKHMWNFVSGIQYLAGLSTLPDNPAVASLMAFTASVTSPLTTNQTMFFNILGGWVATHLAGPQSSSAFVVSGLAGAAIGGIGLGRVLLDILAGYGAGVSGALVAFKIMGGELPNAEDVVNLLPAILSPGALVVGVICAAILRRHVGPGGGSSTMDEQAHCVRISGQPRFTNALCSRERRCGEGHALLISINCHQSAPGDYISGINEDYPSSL

Hepatitis C virus [10] = assay: Antiviral activity against Hepatitis C virus infected in human Huh7.5 cells pretreated […] for 2 hrs followed by viral infection for 1 hrs by plaque assay; assay type: functional, organism-based, Hepacivirus hominis
[11] = Oral bioavailability in Sprague-Dawley rat; assay type: ADME, organism-based; conditions: in vivo
[12] = Oral bioavailability in Beagle dog at 2 mg/kg; assay type: ADME, organism-based, Canis lupus familiaris; conditions: in vivo
[13] = AUC in Sprague-Dawley rat at 2 mg/kg, po; assay type: ADME, organism-based; conditions: in vivo
[14] = AUC in Beagle dog at 2 mg/kg, po; assay type: ADME, organism-based, Canis lupus familiaris; conditions: in vivo
[15] = Clearance in Sprague-Dawley rat at 2 mg/kg, iv by LC-MS/MS analysis; assay type: ADME, organism-based; conditions: in vivo
[16] = Clearance in Beagle dog at 2 mg/kg, iv by LC-MS/MS analysis; assay type: ADME, organism-based, Canis lupus familiaris; conditions: in vivo
Hepatitis C virus [17] = assay: Antiviral activity against Hepatitis C virus genotype 1a infected in human Huh-7 cells assessed as reduction in viral infection; assay type: functional, organism-based, Hepacivirus hominis
Hepatitis C virus [18] = assay: Antiviral activity against Hepatitis C virus genotype 1b infected in human Huh-7 cells assessed as reduction in viral infection; assay type: functional, organism-based, Hepacivirus hominis
[19] = molecular target: T1, Non-structural protein 4b; assay: Binding affinity to Hepatitis C virus genotype 1a NS4B assessed as inhibition constant
[20] = molecular target: T1, Non-structural protein 4b; assay: Binding affinity to Hepatitis C virus genotype 3a NS4B assessed as inhibition constant
[21] = molecular target: T1, Non-structural protein 4b; assay: Binding affinity to Hepatitis C virus genotype 1b NS4B assessed as inhibition constant
[22] = molecular target: T1, Non-structural protein 4b; assay: Inhibition of Hepatitis C virus genotype 3a NS4B
[23] = molecular target: T1, Non-structural protein 4b; assay: Inhibition of Hepatitis C virus genotype 2b NS4B
[24] = molecular target: T1, Non-structural protein 4b; assay: Inhibition of Hepatitis C virus genotype 1a NS4B
[25] = Half life in Beagle dog at 5 mg/kg, po by LC-MS/MS analysis; assay type: ADME, organism-based, Canis lupus familiaris; conditions: in vivo
[26] = molecular target: Hepatitis C virus NS5B RNA-dependent RNA polymerase (Hepatitis C virus, UniProt Q8JXU8); assay: Binding affinity to Hepatitis C virus genotype 2a NS5B polymerase assessed as inhibition constant
[27] = molecular target: T1, Non-structural protein 4b; assay: Binding affinity to Hepatitis C virus genotype 4a NS4B assessed as inhibition constant
[28] = molecular target: T1, Non-structural protein 4b; assay: Binding affinity to Hepatitis C virus genotype 6a NS4B assessed as inhibition constant
[29] = molecular target: T1, Non-structural protein 4b; assay: Inhibition of Hepatitis C virus genotype 4a NS4B
[30] = molecular target: T1, Non-structural protein 4b; assay: Inhibition of Hepatitis C virus genotype 5a NS4B
[31] = molecular target: T1, Non-structural protein 4b; assay: Inhibition of Hepatitis C virus genotype 6a NS4B
Hepatitis C virus [32] = assay: Antiviral activity against HCV assessed as inhibition of RNA replication; assay type: functional, organism-based, Hepacivirus hominis
[33] = molecular target: T1, Non-structural protein 4b; assay: Inhibition of Hepatitis C virus genotype 3a NS4B expressed in Escherichia coli
SARS-CoV-2 = assay: Antiviral activity against SARS-CoV-2 infected in African green monkey Vero cells assessed as reduction in viral replication measured after 72 hrs by qRT-PCR analysis; assay type: functional, organism-based; conditions: Severe acute respiratory syndrome coronavirus 2, Vero
RNA = assay: Inhibition of Hepatitis C virus RNA; assay type: nucleic-acid assay, Hepacivirus hominis
[34] = molecular target: T1, Non-structural protein 4b; assay: Binding affinity to Hepatitis C virus genotype 2b NS4B assessed as inhibition constant
[35] = Half life in Cynomolgus monkey at 1.0 mg/kg,iv or 1.25 mg/kg, po; assay type: ADME, organism-based, Macaca fascicularis; conditions: in vivo
[36] = Half life in human liver microsomes at 1 uM by LC-MS/MS analysis; assay type: ADME, Microsome
[37] = AUC in Sprague-Dawley rat plasma […] at 10 mg/kg, po administered via gavage by LC-MS/MS analysis; assay type: ADME, organism-based; conditions: in vivo

Chain of Hepatitis C virus NS5B RNA-dependent RNA polymerase (Q8JXU8 whole entry): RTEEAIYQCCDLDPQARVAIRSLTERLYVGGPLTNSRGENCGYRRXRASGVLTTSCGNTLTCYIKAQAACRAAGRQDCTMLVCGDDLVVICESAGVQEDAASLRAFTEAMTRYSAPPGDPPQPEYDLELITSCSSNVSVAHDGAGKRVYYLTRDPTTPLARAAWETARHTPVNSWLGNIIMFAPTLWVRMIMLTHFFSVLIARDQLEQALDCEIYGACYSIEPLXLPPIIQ

## C=C[C@@H]1C[C@]1(NC(=O)[C@@H]1C[C@@H](Oc2cc(-c3csc(NC(=O)C(C)C)n3)nc3c(Br)c(OC)ccc23)CN1C(=O)[C@@H](NC(=O)OC1CCCC1)C(C)(C)C)C(=O)O
[1]
  bioavailability: 40%
[2]
  Cmax: 400 nM
[3]
  half-life: 1.2 h
[4]
  clearance: 20 mL/min/kg
[5]
  Vd: 1.2 L/kg
[6]
  AUC: 1.55 µM·h
[7]
  AUC: 13 µM·h
[8]
  AUC: 40 µM·h

## CCC[C@H](NC(=O)[C@@H]1[C@H]2CCC[C@H]2CN1C(=O)[C@@H](NC(=O)[C@@H](NC(=O)c1cnccn1)C1CCCCC1)C(C)(C)C)C(=O)C(=O)NC1CC1
[9]
  pIC50: 6.45
Hepatitis C virus [10]
  pEC50: 7.82
[11]
  bioavailability: 25%
[12]
  bioavailability: 40.7%
[13]
  AUC: 3.34 µM·h
[14]
  AUC: 40.7 µM·h
[15]
  clearance: 54 mL/min/kg
[16]
  clearance: 42 mL/min/kg

## COc1ccc2c(O[C@@H]3C[C@H]4C(=O)N[C@]5(C(=O)NS(=O)(=O)C6CC6)C[C@H]5/C=C\CCCCC[C@H](CC(=O)N5CCCC(F)(F)C5)C(=O)N4C3)cc(-c3nc(C(C)C)cs3)nc2c1C
Hepatitis C virus [17]
  pEC50: 10.40
Hepatitis C virus [18]
  pEC50: 9.15

## CC(C)(C)[C@@H]1NC(=O)O[C@@H]2CCC[C@H]2OC/C=C/C(F)(F)c2nc3ccccc3nc2O[C@@H]2C[C@@H](C(=O)N[C@]3(C(=O)NS(=O)(=O)C4(C)CC4)C[C@H]3C(F)F)N(C2)C1=O
[9]
  pIC50: 8.05
[11]
  bioavailability: 90%
[12]
  bioavailability: 95%
[13]
  AUC: 22 µM·h
[19]
  pKi: 10.12
[20]
  pKi: 9.02
[21]
  pKi: 10.20
[22]
  pIC50: 5.10
[23]
  pIC50: 8.42
[24]
  pIC50: 8.36
[3]
  half-life: 2.8 h
[25]
  half-life: 0.6 h
[26]
  pKi: 10.28
[27]
  pKi: 9.04 and 10.04
[28]
  pKi: 9.96
[29]
  pIC50: 8.21
[30]
  pIC50: 8.09
[31]
  pIC50: 7.95
Hepatitis C virus [32]
  pEC50: 9.62

## CC(C)Oc1ccc(-c2nc(O[C@@H]3C[C@H]4C(=O)N[C@]5(C(=O)NS(=O)(=O)C6(C)CC6)C[C@H]5/C=C\CCCCC[C@H](NC(=O)OC5CCCC5)C(=O)N4C3)c3oc4ccccc4c3n2)cc1
[9]
  pIC50: 9.22
[22]
  pIC50: 6.22
[24]
  pIC50: 9.22
[29]
  pIC50: 9.22
[30]
  pIC50: 9.22
[31]
  pIC50: 9.22
[33]
  pEC50: 8.80
SARS-CoV-2
  pEC50: 8.80

## COc1cnc(O[C@@H]2C[C@H]3C(=O)N[C@]4(C(=O)NS(=O)(=O)C5CC5)CC4/C=C\CCCCC[C@H](NC(=O)OC(C)(C)C)C(=O)N3C2)c2cc(Cl)ccc12 (stereo partly drawn)
[33]
  pIC50: 7.29

## Cc1ccc2nc(-c3ccc4nc(-c5ccc(NC(=O)c6cc(C(F)(F)F)cc(C(F)(F)F)c6)cc5)sc4c3)sc2c1S(=O)(=O)O
RNA
  pIC50: 8.30

## CC(C)(C)NC(=O)N[C@H](C(=O)N1C[C@H]2[C@@H]([C@H]1C(=O)NC(CC1CCC1)C(=O)C(N)=O)C2(C)C)C(C)(C)C (stereo partly drawn) [BOCEPREVIR]
[19]
  pKi: 8.22
[34]
  pKi: 8.22
[20]
  pKi: 8.22

## C=C[C@@H]1C[C@]1(NC(=O)[C@@H]1C[C@@H](Oc2cc(-c3ccccc3)nc3cc(OC)ccc23)CN1C(=O)[C@@H](CC(=O)N1CCCCC1)C(C)(C)C)C(=O)NS(=O)(=O)C1CC1 [SOVAPREVIR]
[21]
  pKi: 10.22
[24]
  pIC50: 7.96
[3]
  half-life: > 90 h
[8]
  AUC: > 505 µM·h
[25]
  half-life: 115 h
[35]
  half-life: 10.4 h
[36]
  half-life at 1 µM: 1.77 h
[37]
  AUC: 339 µM·h
